Data as given in patent publication US10377770B2 (Novartis AG, priority 2015, dated 2019).

These molecules were tested against C-Raf FL (full length CRAF with Y340E and Y341E activating mutations, co-expressed with h14-3-3 zeta) (Homo sapiens (Human), UniProt P04049, Y340E/Y341E) (assay: In vitro Raf activity determination, AlphaScreen p-MEK readout, c-Raf (C-Raf FL)). Settings: c-Raf approximately 4 nM, ATP 1 μM, pre-incubation 60 minutes, reaction 1 hour.
C-Raf FL (full length CRAF with Y340E and Y341E activating mutations, co-expressed with h14-3-3 zeta), sequence (P04049 whole entry Y340E/Y341E): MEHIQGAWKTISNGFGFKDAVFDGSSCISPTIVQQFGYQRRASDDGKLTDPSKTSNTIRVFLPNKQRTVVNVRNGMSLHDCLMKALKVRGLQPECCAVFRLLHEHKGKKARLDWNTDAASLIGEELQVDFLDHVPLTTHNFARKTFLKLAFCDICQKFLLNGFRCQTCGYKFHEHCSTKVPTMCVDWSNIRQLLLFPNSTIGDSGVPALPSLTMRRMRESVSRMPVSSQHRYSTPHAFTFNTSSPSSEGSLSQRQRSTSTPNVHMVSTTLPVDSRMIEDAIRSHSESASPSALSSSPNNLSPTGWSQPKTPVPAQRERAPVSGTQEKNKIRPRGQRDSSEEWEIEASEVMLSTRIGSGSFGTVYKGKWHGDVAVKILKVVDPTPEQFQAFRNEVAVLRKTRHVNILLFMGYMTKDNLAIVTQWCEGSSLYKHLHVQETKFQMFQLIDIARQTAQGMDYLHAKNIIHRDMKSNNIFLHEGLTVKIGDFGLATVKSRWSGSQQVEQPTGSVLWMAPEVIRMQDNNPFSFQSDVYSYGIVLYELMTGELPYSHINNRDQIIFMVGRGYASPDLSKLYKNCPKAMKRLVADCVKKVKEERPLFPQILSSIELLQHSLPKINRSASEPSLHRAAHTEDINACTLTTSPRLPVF
C-Raf FL (full length CRAF with Y340E and Y341E activating mutations, co-expressed with h14-3-3 zeta), sequence (P63104 whole entry partner): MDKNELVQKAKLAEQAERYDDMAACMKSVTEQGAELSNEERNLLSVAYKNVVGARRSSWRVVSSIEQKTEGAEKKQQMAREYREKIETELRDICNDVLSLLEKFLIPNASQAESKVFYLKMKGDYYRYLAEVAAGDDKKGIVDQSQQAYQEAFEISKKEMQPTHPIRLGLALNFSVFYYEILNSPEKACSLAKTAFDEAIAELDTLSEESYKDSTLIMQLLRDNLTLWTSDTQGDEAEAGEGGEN
Type: biochemical
From the text: Sf9 cells co-expressing both proteins were lysed and subjected to immobilized nickel chromatography and eluted with Imidazole. A second column (StrepII binding column) was used and eluted with desthiobiotin. Protein Tags were removed using Prescission enzyme and the protein was further purified using a flowthrough step to remove tags.
C-Raf TR refers to a truncated C-Raf protein, a Δ1-324 deletion mutant. C-Raf FL refers to the full-length C-Raf protein.
Full length MEK1 with an inactivating K97R ATP binding site mutation is utilized as a RAF substrate. The MEK1 cDNA was subcloned with an N-terminal (his)6 tag into a vector for E. Coli expression. The MEK1 substrate was purified from E. Coli lysate by nickel affinity chromatography followed by anion exchange. The final MEK1 preparation was biotinylated (Pierce EZ-Link Sulfo-NHS-LC-Biotin) and concentrated.
Assay Materials: Assay buffer is 50 mM Tris, pH 7.5, 15 mM MgCl2, 0.01% Bovine Serum Albumin (BSA) and 1 mM dithiothreitol (DTT); Stop buffer is 60 mM ethylenediaminetetraacetic acid (EDTA) and 0.01% Tween® 20; b-Raf (V600E), active; biotinylated Mek, kinase dead; Alpha Screen detection kit (available from PerkinElmer™, #6760617R); Anti phospho-MEK1/2 (available from Cell Signaling Technology, Inc. #9121); 384 well low volume assay plates (White Greiner® plates).
Assay conditions: b-Raf (V600E) approximately 4 pM; c-Raf approximately 4 nM; biotinylated Mek, kinase dead approximately 10 nM; ATP 10 μM for BRAF (V600E) and 1 μM for CRAF; Pre-incubation time with compounds 60 minutes at room temperature; Reaction time 1 or 3 hours at room temperature.
Assay protocol: Raf and biotinylated Mek (kinase dead) were combined at 2× final concentrations in assay buffer (50 mM Tris, pH 7.5, 15 mM MgCl2, 0.01% BSA and 1 mM DTT) and dispensed […] per well in assay plates (Greiner white 384 well assay plates #781207) containing […] of 40× of a Raf kinase inhibitor test compound diluted in 100% DMSO. The plate was incubated for 60 minutes at room temperature. The Raf kinase activity reaction was started by the addition of […] per well of 2×ATP diluted in assay buffer. After 3 hours (b-Raf(V600E)) or 1 hour (c-Raf). The reactions were stopped and the phosphorylated product was measured using a rabbit anti-p-MEK (Cell Signaling, #9121) antibody and the Alpha Screen IgG (ProteinA) detection Kit (PerkinElmer #6760617R), by the addition of […] to the well of a mixture of the antibody (1:2000 dilution) and detection beads (1:2000 dilution of both beads) in Stop/bead buffer (25 mM EDTA, 50 mM Tris, pH 7.5, 0.01% Tween20). The additions were carried out under dark conditions to protect the detection beads from light. A lid was placed on top of the plate and incubated for 1 hour at room temperature, after which the luminescence was read on a PerkinElmer Envision instrument.
Molecule `Cc1ccc(NC(=O)c2ccnc(C(F)(F)F)c2)cc1-c1cnc2c(c1)N1CCOC[C@H]1C[C@]2(C)O` (racemic) [Example 40, (rac)-(cis)-N-(3-(6-hydroxy-6-methyl-1,2,4,4a,5,6-hexahydro-[1,4]oxazino[4,3-a][1,5]naphthyridin-9-yl)-4-methylphenyl)-2-(trifluoromethyl)isonicotinamide] has an IC50 of 0.066 nM.
`Cc1ccc(NC(=O)c2ccnc(C(C)(F)F)c2)cc1-c1cnc2c(c1)N1CCOC[C@H]1C[C@@]2(C)O` (racemic) [Example 41, (rac)-(trans)-2-(1,1-difluoroethyl)-N-(3-(6-hydroxy-6-methyl-1,2,4,4a,5,6-hexahydro-[1,4]oxazino[4,3-a][1,5]naphthyridin-9-yl)-4-methylphenyl)isonicotinamide] showed an IC50 of 0.0099 nM.
Molecule `Cc1ccc(NC(=O)c2ccnc(C(C)(F)F)c2)cc1-c1cnc2c(c1)N1CCOC[C@H]1C[C@]2(C)O` (racemic) [Example 42, (rac)-(cis)-2-(1,1-difluoroethyl)-N-(3-(6-hydroxy-6-methyl-1,2,4,4a,5,6-hexahydro-[1,4]oxazino[4,3-a][1,5]naphthyridin-9-yl)-4-methylphenyl)isonicotinamide] has an IC50 of 0.015 nM.
`Cc1ncc(NC(=O)c2cccc(C(F)(F)F)c2)cc1-c1cnc2c(c1)N1CCOC[C@H]1C[C@@]2(C)O` (racemic) [Example 43, (rac)-(trans)-N-(5-(6-hydroxy-6-methyl-1,2,4,4a,5,6-hexahydro-[1,4]oxazino[4,3-a][1,5]naphthyridin-9-yl)-6-methylpyridin-3-yl)-3-(trifluoromethyl)benzamide] was tested, and the IC50 was 0.0082 nM.
`Cc1ncc(NC(=O)c2cccc(C(F)(F)F)c2)cc1-c1cnc2c(c1)N1CCOC[C@H]1C[C@]2(C)O` (racemic) [Example 44, (rac)-(cis)-N-(5-(6-hydroxy-6-methyl-1,2,4,4a,5,6-hexahydro-[1,4]oxazino[4,3-a][1,5]naphthyridin-9-yl)-6-methylpyridin-3-yl)-3-(trifluoromethyl)benzamide] showed an IC50 of 0.037 nM.
`Cc1ccc(NC(=O)c2ccnc(C(F)(F)F)c2)cc1-c1ccc2c(c1)N1CCOCC1c1cn(C)nc1-2` (racemic) [Example 45, (rac)-N-(4-methyl-3-(2-methyl-3b,4,6,7-tetrahydro-2H-[1,4]oxazino[4,3-a]pyrazolo[4,3-c]quinolin-10-yl)phenyl)-2-(trifluoromethyl)isonicotinamide] was tested, and the IC50 was 0.17 nM.
`Cc1ccc(NC(=O)c2ccnc(C(C)(F)F)c2)cc1-c1cc2c(nn1)[C@H](O)C[C@@H]1COCCN21` (racemic) [Example 46, (rac)(trans)-2-(1,1-difluoroethyl)-N-(3-(5-hydroxy-5,6,6a,7,9,10-hexahydropyridazino[3′,4′:5,6]pyrido[2,1-c][1,4]oxazin-2-yl)-4-methylphenyl)isonicotinamide] gave an IC50 of 0.014 nM.
Work on `Cc1ncc(NC(=O)c2cccc(C(F)(F)F)c2)cc1-c1cc2c(nn1)[C@H](O)C[C@@H]1COCCN21` (racemic) [Example 47, (rac)-(trans)-N-(5-(5-hydroxy-5,6,6a,7,9,10-hexahydropyridazino[3′,4′:5,6]pyrido[2,1-c][1,4]oxazin-2-yl)-6-methylpyridin-3-yl)-3-(trifluoromethyl)benzamide] yielded an IC50 of 0.073 nM.
`Cc1ccc(NC(=O)c2ccnc(C(F)(F)F)c2)cc1-c1cc2c(nn1)[C@H](O)C[C@@H]1COCCN21` (racemic) [Example 48, (rac)-(trans)-N-(3-(5-hydroxy-5,6,6a,7,9,10-hexahydropyridazino[3′,4′:5,6]pyrido[2,1-c][1,4]oxazin-2-yl)-4-methylphenyl)-2-(trifluoromethyl)isonicotinamide] gave an IC50 of 0.049 nM.
`Cc1ccc(NC(=O)c2ccnc(C(F)(F)F)c2)cc1-c1ccc2c(c1)N1CCOCC1C(CO)(CO)C2` (racemic) [Example 49, (rac)-N-(3-(5,5-bis(hydroxymethyl)-1,2,4,4a,5,6-hexahydro-[1,4]oxazino[4,3-a]quinolin-9-yl)-4-methylphenyl)-2-(trifluoromethyl)isonicotinamide] was tested, and the IC50 was 0.021 nM.
Molecule `Cc1ccc(NC(=O)c2ccnc(C(C)(F)F)c2)cc1-c1ccc2c(c1)N1CCOCC1C(CO)(CO)C2` (racemic) [Example 50, (rac)-N-(3-(5,5-bis(hydroxymethyl)-1,2,4,4a,5,6-hexahydro-[1,4]oxazino[4,3-a]quinolin-9-yl)-4-methylphenyl)-2-(1,1-difluoroethyl)isonicotinamide] has an IC50 of 0.013 nM.
In the case of `Cc1ncc(NC(=O)c2cccc(C(F)(F)F)c2)cc1-c1ccc2c(c1)N1CCOCC1C(CO)(CO)C2` (racemic) [Example 51, (rac)-N-(5-(5,5-bis(hydroxymethyl)-1,2,4,4a,5,6-hexahydro-[1,4]oxazino[4,3-a]quinolin-9-yl)-6-methylpyridin-3-yl)-3-(trifluoromethyl)benzamide], the IC50 is reported as 0.036 nM.
`Cc1ccc(NC(=O)c2ccnc(C(F)(F)F)c2)cc1-c1ccc2c(c1)N1CCOCC1C1(COC1)C2` (racemic) [Example 54, (rac)-N-(4-methyl-3-(2,4,4a,6-tetrahydro-1H-spiro[[1,4]oxazino[4,3-a]quinoline-5,3′-oxetan]-9-yl)phenyl)-2-(trifluoromethyl)isonicotinamide] was tested, and the IC50 was 0.013 nM.
Molecule `Cc1ccc(NC(=O)c2ccnc(C(C)(F)F)c2)cc1-c1ccc2c(c1)N1CCOCC1C1(COC1)C2` (racemic) [Example 55, (rac)-2-(1,1-difluoroethyl)-N-(4-methyl-3-(2,4,4a,6-tetrahydro-1H-spiro[[1,4]oxazino[4,3-a]quinoline-5,3′-oxetan]-9-yl)phenyl)isonicotinamide] has an IC50 of 0.022 nM.
For `Cc1ncc(NC(=O)c2cccc(C(F)(F)F)c2)cc1-c1ccc2c(c1)N1CCOCC1C1(COC1)C2` (racemic) [Example 56, (rac)-N-(6-methyl-5-(2,4,4a,6-tetrahydro-1H-spiro[[1,4]oxazino[4,3-a]quinoline-5,3′-oxetan]-9-yl)pyridin-3-yl)-3-(trifluoromethyl)benzamide], the IC50 was 0.071 nM.
`Cc1ccc(NC(=O)c2ccnc(C(F)(F)F)c2)cc1-c1ccc2c(c1)N1CCOCC1C(CO)C2` (racemic) [Example 59, (rac)-N-(3-(5-(hydroxymethyl)-1,2,4,4a,5,6-hexahydro-[1,4]oxazino[4,3-a]quinolin-9-yl)-4-methylphenyl)-2-(trifluoromethyl)isonicotinamide] was tested, and the IC50 was 0.0089 nM.
For `Cc1ccc(NC(=O)c2ccnc(C(C)(F)F)c2)cc1-c1ccc2c(c1)N1CCOCC1C(CO)C2` (racemic) [Example 60, (rac)-2-(1,1-difluoroethyl)-N-(3-(5-(hydroxymethyl)-1,2,4,4a,5,6-hexahydro-[1,4]oxazino[4,3-a]quinolin-9-yl)-4-methylphenyl)isonicotinamide], the IC50 was 0.019 nM.
In the case of `Cc1ncc(NC(=O)c2cccc(C(F)(F)F)c2)cc1-c1ccc2c(c1)N1CCOCC1C(CO)C2` (racemic) [Example 61, (rac)-N-(5-(5-(hydroxymethyl)-1,2,4,4a,5,6-hexahydro-[1,4]oxazino[4,3-a]quinolin-9-yl)-6-methylpyridin-3-yl)-3-(trifluoromethyl)benzamide], the IC50 is reported as 0.033 nM.
`CNC(=O)C1Cc2ccc(-c3cc(NC(=O)c4ccnc(C(F)(F)F)c4)ccc3C)cc2N2CCOCC12` (racemic) [Example 66, (rac)-N-methyl-9-(2-methyl-5-(2-(trifluoromethyl)isonicotinamido)phenyl)-1,2,4,4a,5,6-hexahydro-[1,4]oxazino[4,3-a]quinoline-5-carboxamide] gave an IC50 of 0.11 nM.
`CNC(=O)C1Cc2ccc(-c3cc(NC(=O)c4ccnc(C(C)(F)F)c4)ccc3C)cc2N2CCOCC12` (racemic) [Example 67, (rac)-9-(5-(2-(1,1-difluoroethyl)isonicotinamido)-2-methylphenyl)-N-methyl-1,2,4,4a,5,6-hexahydro-[1,4]oxazino[4,3-a]quinoline-5-carboxamide] gave an IC50 of 0.13 nM.
With `CNC(=O)C1Cc2ccc(-c3cc(NC(=O)c4cccc(C(F)(F)F)c4)cnc3C)cc2N2CCOCC12` (racemic) [Example 68, (rac)-N-methyl-9-(2-methyl-5-(3-(trifluoromethyl)benzamido)pyridin-3-yl)-1,2,4,4a,5,6-hexahydro-[1,4]oxazino[4,3-a]quinoline-5-carboxamide] the IC50 was 0.34 nM.
